Legend:
[1] = test system: interleukin (IL)-6 bioactivity; settings: cited from earlier work
NF-kappaB [2] = settings: pretreatment, rat VSMCs; cited from earlier work
[3] = biological target: isopentenyl diphosphate isomerase (Homo sapiens, UniProt Q13907); settings: cited from earlier work
GGPP synthase = GGPP synthase (Homo sapiens, UniProt O95749); settings: cited from earlier work
[4] = biological target: Recombinant human farnesyl diphosphate synthase (Homo sapiens, UniProt P14324); settings: cited from earlier work
Sequence of Recombinant human farnesyl diphosphate synthase (P14324 whole entry): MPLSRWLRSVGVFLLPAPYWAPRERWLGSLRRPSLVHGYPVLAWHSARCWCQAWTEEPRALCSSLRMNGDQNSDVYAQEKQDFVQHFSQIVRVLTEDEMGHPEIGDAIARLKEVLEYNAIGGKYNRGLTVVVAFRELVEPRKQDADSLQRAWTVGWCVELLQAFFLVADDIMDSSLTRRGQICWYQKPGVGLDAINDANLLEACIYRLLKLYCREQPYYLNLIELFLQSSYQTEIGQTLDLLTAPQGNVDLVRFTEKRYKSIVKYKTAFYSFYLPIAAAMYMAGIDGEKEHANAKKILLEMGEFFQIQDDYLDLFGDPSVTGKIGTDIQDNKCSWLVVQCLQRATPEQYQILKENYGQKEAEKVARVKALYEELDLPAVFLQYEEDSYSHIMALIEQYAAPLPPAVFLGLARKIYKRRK

[5] = test system: rat primary astrocytes, microglia, and macrophages; settings: cited from earlier work
[6] = test system: human monocytic THP-1 cells; settings: 10 microM, 24 h pretreatment; cited from earlier work
[7] = test system: human T, B and myeloma tumor cells; settings: by promoting apoptosis; cited from earlier work
[8] = test system: patients with Paget's bone disease; settings: end of study, cited from earlier work
osteoblasts = settings: cited from earlier work
[9] = test system: diabetic patients with active Charcot neuroarthropathy; settings: cited from earlier work
[10] = test system: patients with osteoarthritis; experiment: Osteoarthritis patients in applicant's clinic; type: in vivo, human
[11] = test system: human epidermoid head and neck KB and lung H1355 cancer cells; settings: read-out: IC(50) growth inhibition; 48 h exposure; cited from earlier work
[12] = severe chronic renal failure or dialysis; cited from earlier work
Interleukin-6 = settings: infusion; cited from earlier work
[13] = test system: human epidermoid carcinoma (A431) cells; settings: cited from earlier work
[14] = test system: murine neuron-like cells (N2a) and primary neurons with Swedish mutant APP; settings: cited from earlier work
NF-kappaB [15] = settings: cited from earlier work
neutrophil = settings: in vitro; cited from earlier work
STAT-1 = settings: cited from earlier work
Male Wistar rats = settings: cited from earlier work
IKK [16] = biological target: T1, IKK (Homo sapiens, UniProt O14920+O15111); settings: human epithelial cells; cited from earlier work
T1 construct: endogenous in cells; also 'human epithelial cells'
T1 sequence (O14920 whole entry): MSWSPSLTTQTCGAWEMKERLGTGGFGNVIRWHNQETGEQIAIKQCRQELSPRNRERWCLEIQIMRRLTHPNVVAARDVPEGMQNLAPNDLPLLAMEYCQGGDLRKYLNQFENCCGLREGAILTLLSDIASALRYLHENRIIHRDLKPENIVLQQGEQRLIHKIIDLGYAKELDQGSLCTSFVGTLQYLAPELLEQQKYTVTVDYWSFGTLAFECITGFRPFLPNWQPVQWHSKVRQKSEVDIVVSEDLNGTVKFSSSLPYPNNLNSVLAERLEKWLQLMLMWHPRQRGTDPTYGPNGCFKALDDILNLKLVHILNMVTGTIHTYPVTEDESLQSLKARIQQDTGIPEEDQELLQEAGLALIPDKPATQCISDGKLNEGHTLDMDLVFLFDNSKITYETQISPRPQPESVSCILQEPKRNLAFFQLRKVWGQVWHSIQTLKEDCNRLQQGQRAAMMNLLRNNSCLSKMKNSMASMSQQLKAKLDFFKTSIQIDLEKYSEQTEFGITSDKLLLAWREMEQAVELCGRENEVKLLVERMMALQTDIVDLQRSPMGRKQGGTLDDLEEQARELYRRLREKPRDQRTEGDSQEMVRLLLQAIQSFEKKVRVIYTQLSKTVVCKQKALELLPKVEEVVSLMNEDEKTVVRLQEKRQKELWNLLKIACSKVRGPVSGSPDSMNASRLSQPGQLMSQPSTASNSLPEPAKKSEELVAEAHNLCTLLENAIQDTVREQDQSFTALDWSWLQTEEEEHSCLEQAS
T1 sequence (O15111 whole entry): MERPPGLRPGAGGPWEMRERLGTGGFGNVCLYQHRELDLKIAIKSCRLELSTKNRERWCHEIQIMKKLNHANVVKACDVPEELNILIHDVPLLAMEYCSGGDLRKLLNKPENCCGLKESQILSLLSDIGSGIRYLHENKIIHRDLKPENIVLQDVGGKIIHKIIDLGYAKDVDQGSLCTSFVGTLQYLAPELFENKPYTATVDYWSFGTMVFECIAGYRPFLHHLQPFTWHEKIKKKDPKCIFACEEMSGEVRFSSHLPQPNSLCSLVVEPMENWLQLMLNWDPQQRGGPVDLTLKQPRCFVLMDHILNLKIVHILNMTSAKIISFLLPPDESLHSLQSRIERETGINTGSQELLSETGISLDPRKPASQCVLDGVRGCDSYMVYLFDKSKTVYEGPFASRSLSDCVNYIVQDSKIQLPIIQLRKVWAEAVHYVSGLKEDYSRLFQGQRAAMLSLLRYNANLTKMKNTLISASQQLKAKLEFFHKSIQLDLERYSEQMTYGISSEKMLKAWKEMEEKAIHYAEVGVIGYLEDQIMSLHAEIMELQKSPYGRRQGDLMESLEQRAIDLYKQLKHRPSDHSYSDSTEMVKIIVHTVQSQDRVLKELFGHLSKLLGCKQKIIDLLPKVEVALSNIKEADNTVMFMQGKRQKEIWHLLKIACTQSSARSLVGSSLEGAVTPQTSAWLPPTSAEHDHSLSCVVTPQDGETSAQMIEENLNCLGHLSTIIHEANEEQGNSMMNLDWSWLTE
T1 sequence (Q9Y6K9 whole entry partner): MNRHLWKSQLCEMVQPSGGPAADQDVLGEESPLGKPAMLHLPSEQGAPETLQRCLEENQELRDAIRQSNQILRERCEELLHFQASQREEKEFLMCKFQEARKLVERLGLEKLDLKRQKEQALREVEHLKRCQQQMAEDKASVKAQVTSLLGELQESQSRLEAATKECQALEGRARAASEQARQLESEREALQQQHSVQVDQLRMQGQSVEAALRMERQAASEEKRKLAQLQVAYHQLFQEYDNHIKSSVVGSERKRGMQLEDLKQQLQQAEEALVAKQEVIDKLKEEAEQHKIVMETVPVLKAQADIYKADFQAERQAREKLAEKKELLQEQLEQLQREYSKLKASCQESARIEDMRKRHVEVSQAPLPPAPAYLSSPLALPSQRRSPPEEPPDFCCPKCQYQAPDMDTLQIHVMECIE

IKK [17] = settings: 50 to 200 μM, intestinal epithelial cell line; cited from earlier work
[18] = test system: MMTV-Her-2/neu NF639 cell; settings: cited from earlier work
Tg APPsw transgenic mice = settings: mouse, in vivo; cited from earlier work
JB6 cell = settings: cited from earlier work
[19] = test system: mouse mammary carcinoma 4T1 cells; settings: dose- and time-dependent; cited from earlier work

Sequence of GGPP synthase (O95749 whole entry, species assumed): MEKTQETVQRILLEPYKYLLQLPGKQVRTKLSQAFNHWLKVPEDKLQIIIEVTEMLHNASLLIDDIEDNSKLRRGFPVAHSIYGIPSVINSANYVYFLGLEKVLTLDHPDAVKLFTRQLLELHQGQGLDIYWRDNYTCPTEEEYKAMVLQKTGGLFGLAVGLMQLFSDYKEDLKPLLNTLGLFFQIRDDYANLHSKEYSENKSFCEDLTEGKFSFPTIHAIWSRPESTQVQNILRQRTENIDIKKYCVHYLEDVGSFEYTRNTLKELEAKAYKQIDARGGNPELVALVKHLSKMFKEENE
Sequence of isopentenyl diphosphate isomerase (Q13907 whole entry): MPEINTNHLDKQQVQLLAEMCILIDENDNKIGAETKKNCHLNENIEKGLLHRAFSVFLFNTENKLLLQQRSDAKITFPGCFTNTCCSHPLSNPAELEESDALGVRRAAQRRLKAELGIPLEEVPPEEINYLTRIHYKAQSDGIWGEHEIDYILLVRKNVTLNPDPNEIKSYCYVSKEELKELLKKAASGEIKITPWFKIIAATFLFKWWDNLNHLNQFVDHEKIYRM

For O=c1c(-c2ccc(O[C@@H]3O[C@H](CO)[C@@H](O)[C@H](O)[C@H]3O)cc2)coc2cc(O)cc(O)c12 [Sophoricoside], the IC50 [1] is given as 6.1 µM.

For Cc1ccc(S(=O)(=O)N[C@@H](Cc2ccccc2)C(=O)CCl)cc1 [TPCK], the “Sar1 Ang II-induced NF-kappaB activation and induction of endogenous IL-6 gene expression” value (NF-kappaB [2]) is given as “completely blocked”.

For NCCCC(O)(P(=O)(O)O)P(=O)(O)O [alendronate], the “inhibition of isopentenyl diphosphate isomerase” value [3] is given as “did not inhibit” and the “inhibition of GGPP synthase” value (GGPP synthase) is given as “did not inhibit”.

For O=P(O)(O)C(Cl)(Cl)P(=O)(O)O [clodronate], the “inhibition of recombinant farnesyl diphosphate synthase” value [4] is listed as “not at all”.

In the case of CC[C@H](C)C(=O)O[C@H]1C[C@@H](C)C=C2C=C[C@H](C)[C@H](CC[C@@H]3C[C@@H](O)CC(=O)O3)[C@H]21 [lovastatin], the “LPS-mediated activation of NF kappa B” value ([5]; astrocytes) is given as “Inhibition”, the “LPS-induced expression of TNF-alpha, IL-1beta, and IL-6” value ([5]; rat primary astrocytes, microglia, macrophages) is given as “inhibited” and the “LPS and cytokine-mediated production of NO and expression of iNOS” value ([5]; rat primary astrocytes) is given as “inhibit”. The “hydrogen peroxide (H2O2) generation” value [6] was “markedly suppressed” and the “effect on human T, B and myeloma tumor cells” value [7] was “cytotoxic effect”.

In the case of NCCC(O)(P(=O)(O)O)P(=O)(O)O [pamidronate], the HDL-C increased ([8]; 60 mg intravenous, three cycles every 3 months) is given as 10.3%, the LDL-C decreased ([8]; 60 mg intravenous, three cycles) is given as 5.5% and the TC/HDL-C decreased [8] is given as 12.5%. The “bone ALP and total ALP” value [8] was “significantly fell”, the “production by osteoblasts of interleukin-6” value (osteoblasts) was “inhibit” and the “Urinary deoxypyridinoline (means+/−SEM)” value ([9]; single infusion 90 mg, 4 weeks) was 4.4+/−0.4 nmol/mmol creatinine. The bone-specific alkaline phosphatase ([9]; single infusion 90 mg, after 4 weeks) was 14.1+/−1.2 u/l, the symptoms ([9]; vs placebo group) was “improvement” and the “pain in patients with osteoarthritis (with and without osteoporosis)” value [10] was “pain reduction”. The IC50 [11] was 25 µM, the “adverse effect of large intravenous dosages” value [12] was “marked hypocalcemia and/or hypophosphatemia” and the “mean serum levels of Interleukin-6” value (Interleukin-6) was “significantly decreased”.

In the case of Epigallocatechin-3-gallate [EGCG], the “NF-kappaB levels in cytoplasm and nucleus” value ([13]; 10-80 microM, A431 cells and NHEK) is given as “lowering of NF-kappaB levels”, the “cell growth of A431 cells” value ([13]; dose-dependent, not in NHEK) is given as “inhibition of cell growth” and the “reduction of Abeta generation” value [14] is given as no more than 54%. For the same compound, the “NF-kappaB nuclear translocation and IL-6 secretion induced by UVB and UVA” value (NF-kappaB [15]) was “dramatically inhibited”, the “chemokine induced neutrophil chemotaxis” value (neutrophil) was “dramatically inhibit” and the “INF-γ-induced STAT1 activation” value (STAT-1; T84 epithelial and THP-1 monocytes/macrophages) was “significantly reduced”. The “interferon-γ-induced STAT-1 activation” value (STAT-1; carcinoma-derived cell lines of non-gut origin) was “blocked”, the “phosphorylation of c-Jun” value (Male Wistar rats; 10 mg/kg iv then 10 mg/kg/h, all time points) was “markedly attenuated” and the “Plasma IL-6 and creatine phosphokinase levels” value (Male Wistar rats; 10 mg/kg iv then 10 mg/kg/h) was “decreased”. The “myocardial damage and myeloperoxidase activity” value (Male Wistar rats; 10 mg/kg iv then 10 mg/kg/h) was “reduced”, the “reperfusion-induced activation of IKK, degradation of IκB-α, activation of NF-κB” value (Male Wistar rats; rat, in vivo) was “reduced” and the “TNF-α-mediated IKK activation” value (IKK [16]) was “inhibits”. The IKK activity (IKK [17]) was “inhibited”, the “cell growth in culture and soft agar” value [18] was “inhibited” and the “beta-amyloid (Abeta) levels and plaques” value (Tg APPsw transgenic mice) was “decreased”. The “EGF- or TPA-induced JB6 cell transformation” value (JB6 cell) was “inhibit”, the “activator protein-1 (AP-1) activation” value (JB6 cell) was “inhibited” and the “cell proliferation and apoptosis” value [19] was “inhibition of cell proliferation”.

Reference: US20060275294A1, “METHOD OF PREVENTION AND TREATMENT OF AGING, AGE-RELATED DISORDERS AND/OR AGE-RELATED MANIFESTATIONS INCLUDING ATHEROSCLEROSIS, PERIPHERAL VASCULAR DISEASE, CORONARY ARTERY DISEASE, OSTEOPOROSIS, ARTHRITIS, TYPE 2 DIABETES, DEMENTIA, ALZHEIMERS DISEASE AND CANCER” (priority 2002, published 2006)
